Results from patent US8637537B2, “Serine/threonine kinase inhibitors” (Genentech, Inc., priority 2011, dated 2014).
Where a name gives a salt, the structure may show the parent alone.

What follows are compounds tested against T1, human recombinant GST-PAK1-KD protein (Homo sapiens, UniProt Q13153) (assay: GST-PAK1-KD (kinase domain) biochemical assay, microfluidic mobility shift). Details: Table I, PAK1 Ki class; read-out: Ki.
T1 construct: residues #249-545 of human PAK1, UniProtKP/Swiss Q13153; His6 (N); made in house; host or cells: Sf9 insect cells, pAcGP67 baculovirus expression vector
Protocol: Activity of human recombinant GST-PAK1-KD protein was assessed in vitro assay by observing the phosphorylation of a fluorogenic peptide substrate.
The peptide substrate is a consensus sequence based on various PAK1 substrates reported in the scientific literature. […] Incubations were carried out at 22° C. in MatriCal MP101 384-well Metriplates™. […] Following the 30-minute incubation, the assay mixtures were quenched by the addition of 3 μL of 250 mM EDTA, and the substrate and phosphorylated product were separated by capillary electrophoresis and detected using LabChip® Caliper 3000 (Caliper Life Sciences).

T1 sequence (Q13153 249-545): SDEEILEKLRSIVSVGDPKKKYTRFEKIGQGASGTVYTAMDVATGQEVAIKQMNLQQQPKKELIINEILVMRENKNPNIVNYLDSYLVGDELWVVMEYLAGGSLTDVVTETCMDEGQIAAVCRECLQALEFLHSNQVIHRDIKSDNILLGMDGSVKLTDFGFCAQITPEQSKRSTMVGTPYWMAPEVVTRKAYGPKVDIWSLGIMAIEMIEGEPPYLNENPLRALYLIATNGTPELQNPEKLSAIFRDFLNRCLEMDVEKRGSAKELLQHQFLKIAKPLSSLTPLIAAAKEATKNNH

First: Cc1c(CN(C)c2nccc(Nc3cc(C4CC4)[nH]n3)n2)ccc2[nH]cnc12 [I-95, N^4-(5-Cyclopropyl-1H-pyrazol-3-yl)-N^2-methyl-N^2-((4-methyl-1H-benzo[d]imidazol-5-yl)methyl)pyrimidine-2,4-diamine]
Second: Cc1c(CNc2nccc(Nc3cc(C4CC4)[nH]n3)n2)ccc2[nH]cnc12 [I-16, N^4-(5-Cyclopropyl-1H-pyrazol-3-yl)-N^2-((4-methyl-1H-benzo[d]imidazol-5-yl)methyl)pyrimidine-2,4-diamine]
The Ki of the first is lower: < 50 nM for the first, 50 to 250 nM for the second. The first binds more tightly here.

`c1ccc([C@@H]2C[C@H]2c2cc(Nc3ccnc(NCc4ccc5[nH]cnc5c4)n3)n[nH]2)cc1` (racemic) [I-27, N^2-(1H-Benzimidazol-5-ylmethyl)-N^4-[5-[(trans)-2-phenylcyclopropyl]-1H-pyrazol-3-yl]pyrimidine-2,4-diamine] and `C[C@H](Nc1nccc(Nc2cc(OCc3ccccc3)[nH]n2)n1)c1ccc2[nH]cnc2c1` [I-21, N^2-[(1S)-1-(1H-Benzimidazol-5-yl)ethyl]-N^4-(5-benzyloxy-1H-pyrazol-3-yl)pyrimidine-2,4-diamine] fall in the same range of Ki: 50 to 250 nM for the first, 50 to 250 nM for the second.

First: C[C@H](Nc1nccc(Nc2cc(C3CC3)[nH]n2)n1)c1ccc2cc[nH]c2c1 [I-34, (S)—N^2-(1-(1H-indol-6-yl)ethyl)-N^4-(5-cyclopropyl-1H-pyrazol-3-yl)pyrimidine-2,4-diamine]
Second: C[C@H](Nc1nccc(Nc2cc(C3CC(F)(F)C3)[nH]n2)n1)c1ccc2[nH]ccc2c1 [I-111, (S)—N^2-(1-(1H-indol-5-yl)ethyl)-N^4-(5-(3,3-difluorocyclobutyl)-1H-pyrazol-3-yl)pyrimidine-2,4-diamine]
The Ki of the first is higher: 250 to 1000 nM for the first, < 50 nM for the second.

First: C[C@H](Nc1ncc(Cl)c(Nc2cc(C3CC3)[nH]n2)n1)c1ccc2[nH]cnc2c1 [I-46, (S)—N^2-(1-(1H-benzo[d]imidazol-5-yl)ethyl)-5-chloro-N^4-(5-cyclopropyl-1H-pyrazol-3-yl)pyrimidine-2,4-diamine]
Second: C[C@H](Nc1nccc(Nc2cc(C3CCCC3)[nH]n2)n1)c1ccc2[nH]cnc2c1 [I-2, (S)—N^2-(1-(1H-benzo[d]imidazol-5-yl)ethyl)-N^4-(5-cyclopentyl-1H-pyrazol-3-yl)pyrimidine-2,4-diamine]
The Ki of the first is higher: 50 to 250 nM for the first, < 50 nM for the second. The second binds more tightly here.

`c1cc(CNc2nccc(Nc3cc(CC4CC4)[nH]n3)n2)c2cc[nH]c2c1` [I-48, N^2-((1H-indol-4-yl)methyl)-N^4-(5-(cyclopropylmethyl)-1H-pyrazol-3-yl)pyrimidine-2,4-diamine] and `Clc1c(CNc2nccc(Nc3cc(C4CC4)[nH]n3)n2)ccc2[nH]ccc12` [I-20, N^2-((4-chloro-1H-indol-5-yl)methyl)-N^4-(5-cyclopropyl-1H-pyrazol-3-yl)pyrimidine-2,4-diamine] fall in the same range of Ki: 50 to 250 nM for the first, 50 to 250 nM for the second.

Compared with `C[C@H](Nc1nc(Nc2cc(C3CC3)[nH]n2)cc(C(C)(C)O)n1)c1ccc2[nH]ccc2c1` [I-83, (S)-2-(2-(1-(1H-indol-5-yl)ethylamino)-6-(5-cyclopropyl-1H-pyrazol-3-ylamino)pyrimidin-4-yl)propan-2-ol], `C[C@H](Nc1nc(Nc2cc(C3CC3)[nH]n2)cc(C(F)(F)F)n1)c1ccc2[nH]ccc2c1` [I-18, (S)—N^2-(1-(1H-indol-5-yl)ethyl)-N^4-(5-cyclopropyl-1H-pyrazol-3-yl)-6-(trifluoromethyl) pyrimidine-2,4-diamine] is higher in Ki: < 50 nM for the first, 50 to 250 nM for the second. The first binds more tightly here.

`Cc1cc(Nc2cc(C3CC3)[nH]n2)nc(NCc2cc(F)cc3[nH]ccc23)n1` [I-89, N^4-(5-Cyclopropyl-1H-pyrazol-3-yl)-N^2-((6-fluoro-1H-indol-4-yl)methyl)-6-methylpyrimidine-2,4-diamine Formate] and `Cc1cnc(N[C@@H](C)c2ccc3[nH]ccc3c2)nc1Nc1cc(C2CC2)[nH]n1` [I-31, (S)—N^2-(1-(1H-indol-5-yl)ethyl)-N^4-(5-cyclopropyl-1H-pyrazol-3-yl)-5-methylpyrimidine-2,4-diamine] fall in the same range of Ki: 250 to 1000 nM for the first, 250 to 1000 nM for the second.

`C[C@H](c1ccc2[nH]cnc2c1)N(C)c1nccc(Nc2cc(C3CC3)[nH]n2)n1` [I-55, (R)—N^2-(1-(1H-benzo[d]imidazol-5-yl)ethyl)-N^4-(5-cyclopropyl-1H-pyrazol-3-yl)-N^2-methylpyrimidine-2,4-diamine] and `CC(C)(Nc1nccc(Nc2cc(C3CC3)[nH]n2)n1)c1ccc2[nH]cnc2c1` [I-17, N^2-(2-(1H-Benzo[d]imidazol-5-yl)propan-2-yl)-N^4-(5-cyclopropyl-1H-pyrazol-3-yl)pyrimidine-2,4-diamine] fall in the same range of Ki: 50 to 250 nM for the first, 50 to 250 nM for the second.

First: C[C@H](Nc1nccc(Nc2cc(C3CCOC3)[nH]n2)n1)c1ccc2[nH]cnc2c1 (stereo partly drawn) [I-14, N^2—((S)-1-(1H-benzo[d]imidazol-5-yl)ethyl)-N^4-(5-(tetrahydrofuran-3-yl)-1H-pyrazol-3-yl)pyrimidine-2,4-diamine]
Second: Cc1cc(Nc2ccnc(N[C@@H](C)c3ccc4[nH]ccc4c3)n2)n[nH]1 [I-112, (S)—N^2-(1-(1H-indol-5-yl)ethyl)-N^4-(5-methyl-1H-pyrazol-3-yl)pyrimidine-2,4-diamine]
The Ki of the first is lower: < 50 nM for the first, 250 to 1000 nM for the second. The first binds more tightly here.

In the case of `F[C@@H]1C[C@H]1c1cc(Nc2ccnc(NCc3ccc4[nH]cnc4c3Cl)n2)n[nH]1` [I-78, N^2-((4-chloro-1H-benzo[d]imidazol-5-yl)methyl)-N^4-(5-((1S,2R)-2-fluorocyclopropyl)-1H-pyrazol-3-yl)pyrimidine-2,4-diamine], the Ki is reported as < 50 nM.

Same assay, conditions: Table II, PAK1 Ki class; read-out: Ki

`Fc1ccc2[nH]ccc2c1CNc1nccc(Nc2cc(C3CC3)[nH]n2)n1` [II-20, N^4-(5-cyclopropyl-1H-pyrazol-3-yl)-N^2-((5-fluoro-1H-indol-4-yl)methyl)pyrimidine-2,4-diamine] and `Fc1ccc2[nH]ncc2c1CNc1nccc(Nc2cc(C3CC3)[nH]n2)n1` [II-75, N^4-(5-cyclopropyl-1H-pyrazol-3-yl)-N^2-((5-fluoro-1H-indazol-4-yl)methyl)pyrimidine-2,4-diamine] cannot be ordered by Ki: < 50 nM for the first, < 50 nM for the second.

Compared with `Cc1nc2c(CNc3nccc(Nc4cc(C5CC5)[nH]n4)n3)cc(F)cc2[nH]1` [II-34, N^4-(5-Cyclopropyl-1H-pyrazol-3-yl)-N^2-((6-fluoro-2-methyl-1H-benzo[d]imidazol-4-yl)-methyl)pyrimidine-2,4-diamine], `Cc1nc2c(CNc3nccc(Nc4cc(C5CC5)[nH]n4)n3)cc(Cl)cc2[nH]1` [II-17, N^2-((6-Chloro-2-methyl-1H-benzo[d]imidazol-4-yl)methyl)-N^4-(5-cyclopropyl-1H-pyrazol-3-yl)pyrimidine-2,4-diamine] is lower in Ki: 50 to 250 nM for the first, < 50 nM for the second. The second binds more tightly here.

`COc1n[nH]c2cccc(CNc3nccc(Nc4cc(C5CC5)[nH]n4)n3)c12` [II-22, N^4-(5-Cyclopropyl-1H-pyrazol-3-yl)-N^2-((3-methoxy-1H-indazol-4-yl)methyl)pyrimidine-2,4-diamine] and `COc1c(CNc2nccc(Nc3cc(C4CC4)[nH]n3)n2)ccc2[nH]cnc12` [II-1, N^4-(5-Cyclopropyl-1H-pyrazol-3-yl)-N^2-[(4-methoxy-1H-benzimidazol-5-yl)methyl]-pyrimidine-2,4-diamine] cannot be ordered by Ki: < 50 nM for the first, < 50 nM for the second.

`Clc1cc(CNc2nccc(Nc3cc(C4CC4)[nH]n3)n2)c2cn[nH]c2c1` [II-50, N^2-((6-chloro-1H-indazol-4-yl)methyl)-N^4-(5-cyclopropyl-1H-pyrazol-3-yl)pyrimidine-2,4-diamine] and `Cc1cc(CNc2nccc(Nc3cc(C4CC4)[nH]n3)n2)c2cn[nH]c2c1` [II-13, N^4-(5-Cyclopropyl-1H-pyrazol-3-yl)-N^2-((6-methyl-1H-indazol-4-yl)methyl)pyrimidine-2,4-diamine] cannot be ordered by Ki: < 50 nM for the first, < 50 nM for the second.

Compared with `C[C@@H](Oc1cc(Nc2ccnc(N(C)Cc3ccc4[nH]cnc4c3Cl)n2)n[nH]1)c1ccccc1` [II-21, (R)-N^2-((4-Chloro-1H-benzo[d]imidazol-5-yl)methyl)-N^2-methyl-N^4-(5-(1-phenylethoxy)-1H-pyrazol-3-yl)pyrimidine-2,4-diamine], `CN(Cc1ccc2[nH]cnc2c1Cl)c1ncc(F)c(Nc2cc(C(F)(F)F)[nH]n2)n1` [II-39, N^2-((4-Chloro-1H-benzo[d]imidazol-5-yl)methyl)-5-fluoro-N^4-(5-(trifluoromethyl)-1H-pyrazol-3-yl)-N2-methylpyrimidine-2,4-diamine] is higher in Ki: < 50 nM for the first, 50 to 250 nM for the second. The first binds more tightly here.

First: Fc1cc(CNc2ncc(Cl)c(Nc3cc(C4CC4)[nH]n3)n2)c2cn[nH]c2c1 [II-106, 5-chloro-N^4-(5-cyclopropyl-1H-pyrazol-3-yl)-N^2-((6-fluoro-1H-indazol-4-yl)methyl)pyrimidine-2,4-diamine]
Second: Fc1cc(CNc2nccc(Nc3cc([C@@H]4CC4(F)F)[nH]n3)n2)c2cn[nH]c2c1 [II-65, (S)-N^4-(5-(2,2-difluorocyclopropyl)-1H-pyrazol-3-yl)-N^2-((6-fluoro-1H-indazol-4-yl)methyl)pyrimidine-2,4-diamine]
The Ki of the first is higher: 50 to 250 nM for the first, < 50 nM for the second.

`Cc1n[nH]c2cccc(CN(C)c3nccc(Nc4cc(C5CC5)[nH]n4)n3)c12` [II-19, N^4-(5-Cyclopropyl-1H-pyrazol-3-yl)-N^2-methyl-N^2-((3-methyl-1H-indazol-4-yl)methyl)pyrimidine-2,4-diamine] and `CN(C)CCN(Cc1cccc2[nH]ccc12)c1nccc(Nc2cc([C@H]3C[C@@H]3F)[nH]n2)n1` [II-88, N^2-((1H-indol-4-yl)methyl)-N^2-(2-(dimethylamino)ethyl)-N^4-(5-((1R,2S)-2-fluorocyclopropyl)-1H-pyrazol-3-yl)pyrimidine-2,4-diamine] cannot be ordered by Ki: < 50 nM for the first, < 50 nM for the second.

In the case of `C[C@H](Nc1nccc(Nc2cc(C3CC3)[nH]n2)n1)c1cc2nc[nH]c2cc1Cl` [II-38, (S)-N^2-(1-(6-Chloro-1H-benzo[d]imidazol-5-yl)ethyl)-N^4-(5-cyclopropyl-1H-pyrazol-3-yl)pyrimidine-2,4-diamine], the Ki is reported as 50 to 250 nM.
